Data as given in DBAASP.
Values after ≈ are worked out from the molar mass of the structure shown.

Tests used:
Assay in all cases: ≥ marks a high value that may be exact or a test limit, other limits are often not marked, values filed in µg/mL are converted to µM
[1] = test system: Pseudomonas aeruginosa ATCC 27853
[2] = test system: Klebsiella pneumoniae ATCC 10031
[3] = test system: Shigella dysenteriae ATCC 9752
[4] = test system: Escherichia coli ATCC 25922
[5] = test system: Staphylococcus epidermidis ATCC 12228
[6] = test system: Bacillus subtilis ATCC 6633
[7] = test system: Salmonella enterica subsp. enterica serovar Typhimurium ATCC 14028
[8] = test system: Staphylococcus aureus ATCC 6538P
Micrococcus luteus = test system: Micrococcus luteus
Escherichia coli SBS 363 = test system: Escherichia coli SBS 363
Escherichia coli JW0013 = test system: Escherichia coli JW0013
[9] = test system: Staphylococcus aureus ATCC 29213

With CC(C)C[C@H](NC(=O)[C@H](CC(C)C)NC(=O)[C@H](Cc1c[nH]c2ccccc12)NC(=O)[C@H](CCCCN)NC(=O)[C@H](CC(C)C)NC(=O)[C@@H](N)CC(C)C)C(=O)N[C@@H](CCCCN)C(N)=O [LLKWLLK] as the molecule, how does the MIC [1] read?
Its MIC is 110 µM (≈ 99.9 µg/mL).

What about the MIC [2] of the same molecule?
Its MIC is at least 219 µM.

And the MIC [3]?
The MIC was at least 110 µM.

What about the MIC [4] of the same molecule?
Its MIC is 110 µM (≈ 99.9 µg/mL).

What about the MIC [5] of the same molecule?
The MIC was 110 µM (≈ 99.9 µg/mL).

And the MIC [6]?
The MIC was 27.4 µM (≈ 25 µg/mL).

And the MIC [7]?
The MIC was 219 µM (≈ 200 µg/mL).

What about the MIC [8] of the same molecule?
The MIC was 27.4 µM (≈ 25 µg/mL).

For CC[C@H](C)[C@@H]1NC(=O)[C@H](CO)NC(=O)[C@H](CCCCN)NC(=O)[C@@H]2CSSC[C@@H](C(=O)N[C@@H](CC(=O)O)C(=O)NCC(=O)N[C@@H](CCC(N)=O)C(=O)N[C@H](C(=O)N[C@H](C(=O)N[C@H](C(=O)N[C@@H](CC(N)=O)C(=O)N[C@@H](CO)C(=O)N[C@H]3CSSC[C@@H]4NC(=O)[C@H](CCCN=C(N)N)NC(=O)CNC(=O)[C@H](Cc5ccccc5)NC(=O)[C@H](CCCCN)NC(=O)[C@H](CCCN=C(N)N)NC(=O)[C@H](CCCCN)NC(=O)[C@H](CSSC[C@@H](C(=O)N[C@@H](Cc5ccccc5)C(=O)N[C@@H](Cc5ccccc5)C(=O)O)NC(=O)[C@H](CCC(=O)O)NC(=O)[C@H]([C@@H](C)O)NC(=O)[C@H]([C@@H](C)CC)NC(=O)[C@H](Cc5ccccc5)NC(=O)CNC(=O)[C@H](CC(=O)O)NC(=O)[C@H](CO)NC4=O)NC(=O)[C@H](CC(=O)O)NC(=O)[C@H](CCC(=O)O)NC3=O)[C@@H](C)CC)[C@@H](C)O)[C@@H](C)O)NC(=O)[C@H](CO)NC(=O)[C@H](C(C)C)NC(=O)CNC(=O)[C@H](CCCCN)NC(=O)[C@H](CCCN=C(N)N)NC(=O)[C@H](CC(N)=O)NC(=O)[C@H](CC(C)C)NC(=O)[C@H](Cc3ccc(O)cc3)NC(=O)CNC(=O)[C@H](Cc3ccc(O)cc3)NC(=O)CNC(=O)[C@H](CSSC[C@H](NC(=O)[C@@H](NC(=O)[C@@H]3CCCN3C(=O)[C@H](C)NC(=O)[C@H](Cc3ccc(O)cc3)NC(=O)[C@H](C)NC(=O)[C@H](Cc3ccccc3)NC(=O)[C@@H](NC(=O)[C@@H](N)CCSC)C(C)C)[C@@H](C)O)C(=O)N[C@@H](C)C(=O)N[C@@H](CCCN=C(N)N)C(=O)N2)NC(=O)[C@H](Cc2ccc(O)cc2)NC(=O)[C@H](CCCN=C(N)N)NC(=O)[C@H](C)NC(=O)CNC1=O [MVFAYAPTCARCKSIGARYCGYGYLNRKGVSCDGQTTINSCEDCKRKFGRCSDGFITECFF], which MIC (Micrococcus luteus) is on record?
Its MIC is at least 100 µM.

And the MIC (Escherichia coli SBS 363)?
Its MIC is at least 35.4 µM.

How did the MIC (Escherichia coli JW0013) turn out when CC[C@H](C)[C@H](NC(=O)[C@H](CCCN=C(N)N)NC(=O)[C@H](CCCN=C(N)N)NC(=O)[C@@H]1CCCN1C(=O)[C@@H]1CCCN1C(=O)[C@H](CCCN=C(N)N)NC(=O)[C@@H]1CCCN1C(=O)[C@H](CCCN=C(N)N)NC(=O)[C@@H]1CCCN1C(=O)[C@H](CC(C)C)NC(=O)[C@H](Cc1ccc(O)cc1)NC(=O)[C@@H]1CCCN1C(=O)[C@@H]1CCCN1C(=O)[C@H](CCCCN)NC(=O)[C@H](CC(=O)O)NC(=O)[C@@H](N)CCC(N)=O)C(=O)N[C@@H](Cc1ccc(O)cc1)C(=O)N[C@@H](CC(N)=O)C(=O)N[C@@H](CCCN=C(N)N)C(N)=O [QDKPPYLPRPRPPRRIYNR] was run?
The MIC was 1.98 µM (≈ 4.8 µg/mL).

With CC[C@H](C)[C@H](NC(=O)[C@H](CCCN=C(N)N)NC(=O)[C@@H](N)CCCN=C(N)N)C(=O)N[C@@H](CCCCN)C(=O)N1CCC[C@H]1C(=O)N[C@@H](CCCN=C(N)N)C(=O)N1CCC[C@H]1C(=O)N1CCC[C@H]1C(=O)N[C@@H](CCCN=C(N)N)C(=O)N[C@@H](CC(C)C)C(=O)N1CCC[C@H]1C(=O)N[C@@H](CCCN=C(N)N)C(=O)N1CCC[C@H]1C(=O)N[C@@H](CCCN=C(N)N)C(=O)N1CCC[C@H]1C(=O)N[C@@H](CCCN=C(N)N)C(=O)O [RRIKPRPPRLPRPRPR] as the molecule, how does the MIC (Escherichia coli JW0013) read?
Its MIC is 0.24 µM (≈ 0.492 µg/mL).

Which MIC (Escherichia coli JW0013) does the source give for CC[C@H](C)[C@H](NC(=O)[C@H](CCCN=C(N)N)NC(=O)[C@@H](N)CCCN=C(N)N)C(=O)N[C@@H](CCCN=C(N)N)C(=O)N1CCC[C@H]1C(=O)N[C@@H](CCCN=C(N)N)C(=O)N[C@@H](CCCN=C(N)N)C(=O)N1CCC[C@H]1C(=O)N[C@@H](CCCN=C(N)N)C(=O)N[C@@H](CC(C)C)C(=O)N1CCC[C@H]1C(=O)N[C@@H](CCCN=C(N)N)C(=O)N1CCC[C@H]1C(=O)N[C@@H](CCCN=C(N)N)C(=O)N1CCC[C@H]1C(=O)N[C@@H](CCCN=C(N)N)C(=O)O [RRIRPRRPRLPRPRPR] here?
The MIC was 0.3 µM (≈ 0.641 µg/mL).

CC[C@H](C)[C@H](NC(=O)[C@H](C)NC(=O)[C@H](CCC(N)=O)NC(=O)[C@H](Cc1cnc[nH]1)NC(=O)CNC(=O)[C@H](CCSC)NC(=O)[C@@H]1CCCN1C(=O)[C@H](CCCN=C(N)N)NC(=O)CNC(=O)[C@@H]1CSSC[C@@H]2NC(=O)[C@H](CC(N)=O)NC(=O)[C@H](Cc3cnc[nH]3)NC(=O)[C@H](CCCCN)NC(=O)[C@H](CC(=O)O)NC(=O)[C@H](CC(N)=O)NC(=O)[C@H]([C@@H](C)O)NC(=O)[C@@H]3CSSC[C@H](NC(=O)[C@H](CCCCN)NC(=O)[C@H](CC(C)C)NC(=O)[C@H](CCCCN)NC(=O)[C@H](Cc4ccccc4)NC(=O)[C@H](CC(C)C)NC(=O)CNC(=O)[C@H](CCCCN)NC(=O)[C@H](CCCN=C(N)N)NC(=O)[C@H](CSSC[C@H](NC(=O)[C@@H](N)CO)C(=O)N[C@@H]([C@@H](C)CC)C(=O)N4CCC[C@H]4C(=O)N[C@@H](CCCCN)C(=O)N[C@@H](Cc4cnc[nH]4)C(=O)N[C@@H](CCC(=O)O)C(=O)N[C@@H](CCC(=O)O)C(=O)N3)NC2=O)C(=O)N[C@@H](CCC(N)=O)C(=O)N[C@H]2CSSC[C@H](NC(=O)[C@H](CCCN=C(N)N)NC(=O)[C@H](CCC(=O)O)NC(=O)[C@H]([C@@H](C)O)NC(=O)[C@@H]3CCCN3C(=O)[C@H](CCC(N)=O)NC(=O)CNC(=O)[C@H](CO)NC(=O)[C@H](CCC(=O)O)NC(=O)[C@H](CC(=O)O)NC(=O)[C@H](CC(=O)O)NC(=O)[C@H](Cc3ccccc3)NC(=O)[C@H]([C@@H](C)O)NC(=O)[C@H](CO)NC2=O)C(=O)N[C@@H](C)C(=O)N1)C(=O)N[C@@H](CCC(=O)O)C(=O)N[C@H](C(=O)NCC(=O)N[C@@H](CC(C)C)C(=O)N[C@@H](CC(N)=O)C(=O)N[C@H](C(=O)N[C@@H](Cc1ccccc1)C(=O)N[C@@H](CCCN=C(N)N)C(=O)NCC(=O)N[C@@H](CC(C)C)C(=O)N[C@@H](Cc1ccccc1)C(=O)N[C@@H](CCCCN)C(=O)NCC(=O)N[C@@H](CCCCN)C(=O)N[C@@H](CCCCN)C(=O)N[C@@H](CCCCN)C(=O)N[C@@H](CC(N)=O)C(=O)N[C@@H](CCCCN)C(=O)N[C@@H](CCCCN)C(=O)N[C@H](C(=O)N[C@@H](CCCCN)C(N)=O)[C@@H](C)O)[C@@H](C)CC)[C@@H](C)O [SCIPKHEECTNDKHNCCRKGLFKLKCQCSTFDDESGQPTERCACGRPMGHQAIETGLNIFRGLFKGKKKNKKTK] was tested. Which MIC [9] did it give?
The MIC was over 250 µM.

What about the MIC (Escherichia coli SBS 363) of the same molecule?
Its MIC is 22.1 µM (≈ 185 µg/mL).

Which MIC (Escherichia coli JW0013) does the source give for CC[C@H](C)[C@H](NC(=O)[C@H](CCCN=C(N)N)NC(=O)[C@H](CCCN=C(N)N)NC(=O)[C@@H]1CCCN1C(=O)[C@@H]1CCCN1C(=O)[C@H](CCCN=C(N)N)NC(=O)[C@H](Cc1c[nH]c2ccccc12)NC(=O)[C@H](CCCN=C(N)N)NC(=O)[C@@H]1CCCN1C(=O)[C@H](CC(C)C)NC(=O)[C@H](Cc1ccc(O)cc1)NC(=O)[C@@H]1CCCN1C(=O)[C@@H]1CCCN1C(=O)[C@H](CCCCN)NC(=O)[C@H](CC(=O)O)NC(=O)[C@@H](N)C(C)C)C(=O)N[C@@H](Cc1ccc(O)cc1)C(=O)N[C@@H](CC(N)=O)C(=O)N[C@@H](CCCN=C(N)N)C(N)=O [VDKPPYLPRWRPPRRIYNR] here?
Its MIC is 1.94 µM (≈ 4.8 µg/mL).

How did the MIC (Escherichia coli JW0013) turn out when CC[C@H](C)[C@H](NC(=O)[C@H](CCCN=C(N)N)NC(=O)[C@H](CCCN=C(N)N)NC(=O)[C@@H]1CCCN1C(=O)[C@@H]1CCCN1C(=O)[C@H](CCCN=C(N)N)NC(=O)[C@@H]1CCCN1C(=O)[C@@H](NC(=O)[C@@H]1CCCN1C(=O)[C@H](CC(C)C)NC(=O)[C@H](Cc1ccc(O)cc1)NC(=O)[C@@H]1CCCN1C(=O)[C@@H]1CCCN1C(=O)[C@H](CCCCN)NC(=O)[C@H](CC(=O)O)NC(=O)[C@@H](N)C(C)C)[C@@H](C)O)C(=O)N[C@@H](Cc1ccc(O)cc1)C(=O)N[C@@H](CC(N)=O)C(=O)N[C@@H](CCCN=C(N)N)C(N)=O [VDKPPYLPTPRPPRRIYNR] was run?
Its MIC is 2.06 µM (≈ 4.8 µg/mL).

With CC[C@H](C)[C@H](NC(=O)[C@H](CCCN=C(N)N)NC(=O)[C@H](CCCN=C(N)N)NC(=O)[C@@H]1CCCN1C(=O)[C@@H]1CCCN1C(=O)[C@H](CCCN=C(N)N)NC(=O)[C@H](CCCN=C(N)N)NC(=O)[C@H](CCCN=C(N)N)NC(=O)[C@@H]1CCCN1C(=O)[C@H](CCCN=C(N)N)NC(=O)[C@H](Cc1ccc(O)cc1)NC(=O)[C@@H]1CCCN1C(=O)[C@H](CCCN=C(N)N)NC(=O)[C@H](CCCCN)NC(=O)[C@H](CC(=O)O)NC(=O)[C@@H](N)C(C)C)C(=O)N[C@@H](Cc1ccc(O)cc1)C(=O)N[C@@H](CC(N)=O)C(=O)N[C@@H](CCCN=C(N)N)C(N)=O [VDKRPYRPRRRPPRRIYNR] as the molecule, how does the MIC (Escherichia coli JW0013) read?
The MIC was 0.941 µM (≈ 2.4 µg/mL).
